Data as given in US20260373103A1, “COMPOSITIONS AND METHODS FOR PREVENTING CARDIOMYOPATHY” (OHIO STATE INNOVATION FOUNDATION, priority 2022, published 2026).

Assays:
LC3-II/LC3-I = test: LC3 I/II immunoblotting of heart tissue; format: in vivo, mice; conditions: 25 mg/kg/day i.p. for 5 days
Experimental: Cells were lysed in RIPA buffer (50 mM Tris-HCl, at pH 8.0; 150 mM NaCl; 1% (vol/vol) Nonidet P-40; 0.5% sodium deoxycholate, 0.1% SDS and protease inhibitor cocktail (Roche)) on ice. Primary antibodies were used at the following concentrations: USP30 (Santa Cruz, sc-515235, 1:200); TOM20 (Cell Signaling Technology, 42406S, 1:1000); TOM40 (Proteintech, 18409-1-AP, 1:1000); NDP52 (Cell Signaling Technology, 60732S, 1:1000); TIM23 (Proteintech, 11123-1-AP, 1:500); LC3A/B (Cell Signaling Technology, 4108S, 1:1000); GAPDH (Cell Signaling Technology, 5175S, 1:1000); PINK1 (Cell Signaling Technology, 6946S, 1:1000); ACTIN (Cell Signaling Technology, 3700S, 1:1000). The membranes were incubated with anti-rabbit (LI-COR, 926-32211, 1:15000) or anti-mouse (LI-COR, 926-68072, 1:15000) IgG secondary antibodies for 1 h at room temperature. Images were captured using the Odyssey system (LI-Cor). One representative blot is shown of three independent experiments.
The mt-Keima mouse. […] The mice were lightly anesthetized with isoflurane and the ejection fraction, fractional shortening, and ventricular chamber dimensions were determined using 2-D-guided M mode images. Ejection fraction, fractional shortening, ventricular chamber dimensions, and left ventricular mass were calculated automatically using the VevoLAB program. […]

TIM23 = TIM23 protein level/degradation after A/O, immunoblotting; format: cell-based; conditions: ST-539; HeLa-Parkin/USP30, A/O 18 h
Experimental: (§1) HeLa cells and mouse embryonic fibroblasts (MEFs) were grown in Dulbecco's minimum essential medium (DMEM) with 10% fetal bovine serum (FBS) supplemented with penicillin-streptomycin. HeLa Parkin, PINK1 KO cells, WT and MFN2 KO cells were previously described. Cells stably expressing USP30 were generated using lentiviral vectors of pLVX-Puro-Myc-USP30. The USP30 plasmid was obtained from Addgene. The plasmid was transferred into a lentiviral vector and viral particles were prepared by transiently transfecting HEK293T using standard methods. For the drug treatment experiments, cells were incubated in medium containing a mixture of 5 μM oligomycin and 5 μM antimycin A (A/O; see figures for treatment times). In 18 h treatment, A/O were used in combination with 10 μM quinolyl-valyl-O-methylaspartyl-[−2,6-difluorophenoxy]-methyl ketone (QVD), a broad-spectrum caspase inhibitor. […]
The enzymatic activity of Parkin is to function as an E3 ubiquitin ligase. […] We then employed this cellular assay to monitor TOM20 turnover, and analyzed compounds known to be associated with the ubiquitination process for inhibitors of USP30. […] Initially to assess mitophagy in cells, we monitored the degradation of the inner membrane protein, the translocase of the inner membrane 23 (TIM23), by immunoblotting (FIG. 5A). […]

Jurkat T cells = test: Doxorubicin-induced apoptosis / cell viability, Resazurin assay; format: cell-based; conditions: 48 hours, ST-539 and doxorubicin
NDP52 = NDP52 level after A/O, immunoblotting; format: cell-based; conditions: Parkin positive cells, A/O 18 h, ST-539 3 μg/ml; not in WT HeLa or PINK1 KO cells
Experimental: as §1
Genetic suppression of USP30 in Parkin-overexpressing cells promotes the clearance of mitochondria in response to mitochondrial depolarizing agents. […] To investigate if the PINK 1/Parkin pathway is required for ST-539 induced mitophagy, we analyzed TOM20 ubiquitination in wild-type (WT) HeLa cells, which express little to no endogenous Parkin, as well as in WT and PINK1 knockout (KO) HeLa cells stably expressing YFP-tagged Parkin. […]

CC(C)(C)NS(=O)(=O)c1cccc2c(NC(=O)C(Cc3ccccc3)NC(=O)c3ccccc3)cccc12 (centres unmarked) [ST-539]
LC3-II/LC3-I ratio in heart (LC3-II/LC3-I): increase in LC3-II/LC3-I ratio | LC3-II level in heart (LC3-II/LC3-I; *p<0.05): increased levels of LC3-II | TIM23 degradation (TIM23): restored TIM23 and TOM40 degradation | doxorubicin-induced apoptosis in leukemia (percent cell viability) (Jurkat T cells): potentiates doxorubicin-induced apoptosis in leukemia | reduction in NDP52 level relative to vehicle treated cells (NDP52): more significant reduction
